Read-outs that look alike come from different tables or passages of the source.
Experiments:
[1] = Incubations with pooled human liver S9 fraction (pHLS9), metabolite identification by LC-HRMS/MS; type: in vitro ADME; conditions: 25 μM 4F-MDMB-BINACA, one replicate of n = 2, n.d. = not detected; for Absolute peak area, pHLS9 6 h [25 μM]: 6 h incubation; for Absolute peak area, pHLS9 1 h [25 μM]: 1 h incubation
Protocol: According to published procedures (Richter et al., [2017b], [2019b]; Caspar et al., [2018b]; Wagmann et al., [2019b],[c]), the final incubation volume per reaction tube was 150 μl, with a final protein concentration of 2 mg/ml. The given concentrations represent final concentrations. A preincubation for 10 min at 37°C with UGT reaction mixture solution B (containing alamethicin, 25 μg/ml), MgCl2 (2.5 mM), NADP^+ (0.6 mM), isocitrate (2.5 mM), isocitrate dehydrogenase (0.8 U/ml), superoxide dismutase (100 U/ml), acetyl coenzyme A (0.1 mM), phosphate buffer (90 mM, pH 7.4), and pHLS9 (2 mg/ml) was done. Afterwards, UGT reaction mixture solution A (containing UDP glucuronic acid, 2.5 mM), PAPS (40 μM), SAM (1.2 mM), dithiothreitol (1 mM), and glutathione (10 mM) were added, as well as 25 μM 4F-MDMB-BINACA to start the reactions. The mixture was incubated for 360 min. Total amount of organic solvent in incubation mixtures was <2% (Chauret et al., [1998]). After 60 min, an aliquot of the reaction mixture (60 μl) was transferred in another reaction tube containing 20 μl of ice-cold acetonitrile to terminate the reactions. The remaining aliquot (90 μl) was incubated for an additional 300 min, and then the reactions were stopped by adding 30 μl of ice-cold acetonitrile. Thereafter, the reaction tubes were cooled at −20°C for 30 min prior to centrifugation at 18,407 × g for 2 min. The supernatants (50 μl) were transferred into autosampler vials, and 1 μl was injected onto the LC-HRMS/MS system. Control samples without pHLS9 and blank samples without substrate were prepared to confirm the absence of non-metabolically formed and interfering compounds, respectively. All incubations were performed in duplicate.
According to a previous study (Richter et al., [2019a]), a Thermo Fisher Scientific (TF, Dreieich, Germany) Dionex UltiMate 3000 Rapid Separation (RS) UHPLC system with a quaternary UltiMate 3000 RS pump and an UltiMate 3000 RS autosampler controlled by the TF Chromeleon software version 6.8 was used. The LC system was coupled to an Orbitrap-based TF Q-Exactive Plus equipped with a heated electrospray ionization II (HESI-II) source. Calibration was done prior to analysis with a Positive Cal Mix (Supelco, Bellefonte, PA, USA) at a flow rate of 3 μl/min using a syringe pump. The conditions of the LC system were as follows: TF Accucore PhenylHexyl column (100 × 2.1 mm, 2.6 μm particle size); gradient elution with 2 mM ammonium formate solution containing 0.1% (v/v) formic acid (eluent A) and 2 mM ammonium formate solution in acetonitrile/methanol (50:50, v/v) containing 0.1% (v/v) formic acid, and 1% (v/v) water (eluent B). […] The following gradient was used: 0–1.0 min hold 1% B, 1–10 min to 99% B, 10–11.5 min hold 99% B, 11.5–13.5 min hold 1% B. The HESI-II source conditions were as follows: ionization mode, positive; heater temperature, 320°C; ion transfer capillary temperature, 320°C; sheath gas, 60 arbitrary units (AU); auxiliary gas, 10 AU; spray voltage, 4.00 kV; and S-lens RF level, 50.0. Mass spectrometry experiments were performed using high-resolution (HR) full scan mode and a targeted MS^2 mode with an inclusion list for each NPS. The inclusion list contained m/z values of metabolites, which were likely to be formed for example hydroxy, oxo, carboxy, dealkyl, demethylenylated, and defluorinated metabolites (phase I) as well as sulfates and glucuronides (phase II) and combinations of them. Full scan settings were as follows: resolution, 35,000; automatic gain control (AGC) target, 3e6; maximum injection time (IT), 120 ms; scan ranges, 3,4-DMA-NBOMe m/z 100–700, ephylone m/z 200–600, 4F-MDMB-BINACA m/z 150–700, 4F-PHP m/z 200–600, and 1P-LSD m/z 250–700. The settings for the targeted MS^2 mode with the respective inclusion lists were as follows: resolution, 17,500; AGC target, 2e5; maximum IT, 250 ms; loop count, 5; isolation window, 1.0 m/z; stepped normalized collision energy (NCE), 17.5, 35, 52.5%; pick others, enabled. […]

HepaRG cells = test: Incubations with HepaRG cells, metabolite identification by LC-HRMS/MS; type: in vitro ADME, human; conditions: 24 h; for Absolute peak area, HepaRG [25 μM]: 25 μM parent NPS; for Absolute peak area, HepaRG [25 μM] / Absolute peak area, HepaRG [250 μM]: cell culture medium, one replicate of n = 3, n.d. = not detected; for Absolute peak area, HepaRG [250 μM]: 250 μM parent NPS
zebrafish larvae [2] = test: Zebrafish larvae exposure, metabolite identification by LC-HRMS/MS; conditions: 24 h; for Absolute peak area, Zebrafish larvae [25 μM]: 25 μM 4F-MDMB-BINACA in medium; for Absolute peak area, Zebrafish larvae [25 μM] / Absolute peak area, Zebrafish larvae [100 µM]: larvae 4 dpf, larvae extract, one replicate of n = 3, n.d. = not detected; for Absolute peak area, Zebrafish larvae [100 µM]: 100 µM parent NPS in medium
[3] = cited from earlier work; for Detection in pHLS9 [25 µM]: n = 2, according to literature
[4] = human biosamples after intake of ephylone and 4F-PHP; ref Wagmann et al., [2019b]; cited from earlier work
zebrafish larvae [5] = test: In vivo maximum-tolerated concentration (MTC) study in zebrafish larvae; design: species or system zebrafish (Danio rerio); conditions: for Survival rate: 24-h treatment, fifteen larvae
Protocol: Internal protocols based on published standard methods (Westerfield, [2007]) were used to perform zebrafish husbandry and the maximum-tolerated concentration (MTC) testing was based on a previous study (Richter et al., [2019a]). Danieau's medium [17 mM NaCl, 2 mM KCl, 0.12 mM MgSO4, 1.8 mM Ca(NO3)2, 1.5 mM HEPES, pH 7.1–7.3, and 1.2 μM methylene blue] at 28°C was used to raise zebrafish larvae of the AB wild-type strain. For MTC testing, 96-well plates were used with 100 μl of medium and one larva per well. Drug exposition was started 4 dpf using 0, 0.01, 0.1, 1, 10, 50, or 100 μM final concentrations of 3,4-DMA-NBOMe, ephylone, 4F-MDMB-BINACA, 4F-PHP, or 1P-LSD, respectively. The drug exposure in the incubator at 28°C lasted 24 h. The final DMSO concentration was 1% (v/v) for all experiments. Monitoring of the larvae was done using a LEICA M205 FA stereo microscope (Leica Mikrosysteme Vertrieb GmbH, Wetzlar, Germany) to detect developmental defects and/or decreased survival rates. Fifteen larvae were used for each experiment.

monooxygenases = conditions: initial monooxygenases activity screenings described elsewhere; ref Caspar et al., [2018a]; Wagmann et al., [2019b],[c]; cited from earlier work
[6] = ephylone and metabolites, ref Wagmann et al., 2019a
[7] = 25 μM, ref Caspar et al., [2018b]

## CC(C)(C)[C@H](NC(=O)c1nn(CCCCO)c2ccccc12)C(=O)O [MB7]
[1]
  Absolute peak area, pHLS9 6 h [25 μM]: 1.91E+06
HepaRG cells
  Absolute peak area, HepaRG [25 μM]: 1.25E+06
  Absolute peak area, HepaRG [250 μM]: 1.34E+07
Zebrafish larvae [2]
  Absolute peak area, Zebrafish larvae [25 μM]: 5.96E+04

## CC1(C)COC(=O)C1NC(=O)c1nn(CCCC(=O)O)c2ccccc12 (stereo not drawn) [MB9]
[1]
  Absolute peak area, pHLS9 6 h [25 μM]: 1.57E+05
Zebrafish larvae [2]
  Absolute peak area, Zebrafish larvae [25 μM]: 2.53E+06

## CCCC(NCC)C(=O)c1ccc(O)c(O)c1 (stereo not drawn) [ME2]
HepaRG cells
  Absolute peak area, HepaRG [25 μM]: 1.72E+05
  Absolute peak area, HepaRG [250 μM]: 6.37E+05
[3]; [6]
  Detection in pHLS9 [25 µM]: +
[4]
  Signals with the highest abundance in human plasma and/or urine: highest ephylone-related signals
Zebrafish larvae [2]
  Absolute peak area, Zebrafish larvae [100 µM]: 4.44E+06

## CC(C)(CO)C(NC(=O)c1nn(CCCCF)c2ccccc12)C(=O)O (stereo not drawn) [MB13]
[1]
  Absolute peak area, pHLS9 1 h [25 μM]: 7.30E+03
  Absolute peak area, pHLS9 6 h [25 μM]: 6.42E+05
HepaRG cells
  Absolute peak area, HepaRG [250 μM]: 3.13E+07
Zebrafish larvae [2]
  Absolute peak area, Zebrafish larvae [25 μM]: 4.57E+05

## COC(=O)[C@@H](NC(=O)c1nn(CCCC(=O)O)c2ccccc12)C(C)(C)C [MB15]
[1]
  Absolute peak area, pHLS9 1 h [25 μM]: 2.16E+06
  Absolute peak area, pHLS9 6 h [25 μM]: 3.34E+06
HepaRG cells
  Absolute peak area, HepaRG [25 μM]: 1.15E+04
  Absolute peak area, HepaRG [250 μM]: 8.00E+06
Zebrafish larvae [2]
  Absolute peak area, Zebrafish larvae [25 μM]: 2.60E+07

## CCCC(N)C(=O)c1ccc2c(c1)OCO2 (stereo not drawn) [ME1]
HepaRG cells
  Absolute peak area, HepaRG [25 μM]: 4.14E+06
  Absolute peak area, HepaRG [250 μM]: 2.21E+07
[3]; [6]
  Detection in pHLS9 [25 µM]: +
[4]
  Signals with the highest abundance in human plasma and/or urine: highest ephylone-related signals
Zebrafish larvae [2]
  Absolute peak area, Zebrafish larvae [100 µM]: 4.12E+06

## CC1(C)COC(=O)C1NC(=O)c1nn(CCCCO)c2ccccc12 (stereo not drawn) [MB5]
[1]
  Absolute peak area, pHLS9 6 h [25 μM]: 1.26E+06
HepaRG cells
  Absolute peak area, HepaRG [250 μM]: 2.40E+05
Zebrafish larvae [2]
  Absolute peak area, Zebrafish larvae [25 μM]: 9.42E+05

## CC(C)(C)[C@H](NC(=O)c1n[nH]c2ccccc12)C(=O)O [MB3]
[1]
  Absolute peak area, pHLS9 1 h [25 μM]: 9.07E+05
  Absolute peak area, pHLS9 6 h [25 μM]: 1.27E+06
HepaRG cells
  Absolute peak area, HepaRG [25 μM]: 3.99E+05
  Absolute peak area, HepaRG [250 μM]: 6.92E+06

## COc1ccccc1CNC(C)Cc1ccc(OC)c(OC)c1 (stereo not drawn) [3,4-DMA-NBOMe, 1-[3,4-dimethoxy]-N-[ortho-methoxybenzyl]propane-2-amine]
HepaRG cells
  Absolute peak area, HepaRG [25 μM]: 1.48E+09
  Absolute peak area, HepaRG [250 μM]: 1.03E+10
HepaRG cells; 25 μM
  Number of phase I metabolites detected, HepaRG [25 μM]: 6
  Number of phase II metabolites detected, HepaRG [25 μM]: 4
HepaRG cells; 250 μM
  Number of phase I metabolites detected, HepaRG [250 μM]: 10
  Number of phase II metabolites detected, HepaRG [250 μM]: 7
Zebrafish larvae [5]; 0.01 μM, larvae 4 dpf
  Survival rate: 100%
Zebrafish larvae [5]; 0.1 μM, larvae 4 dpf
  Survival rate: 100%
Zebrafish larvae [5]; 1 μM, larvae 4 dpf
  Survival rate: 100%
Zebrafish larvae [5]; 10 μM, larvae 4 dpf
  Survival rate: 100%
Zebrafish larvae [5]; 50 μM, larvae 4 dpf
  Survival rate: 100%
Zebrafish larvae [5]; 100 μM, larvae 4 dpf
  Survival rate: 100%
Zebrafish larvae [5]; 0.01 to 100 μM, larvae 4 dpf, 24 h
  Survival rates for all tested concentrations: 100%
Zebrafish larvae [5]; 24 h exposure via medium
  Concentration considered non-toxic for zebrafish larvae (4 dpf): 100 µM
Zebrafish larvae [5]; up to 100 μM, larvae 4 dpf, 24 h
  Malformations: no malformations
[3]; [7]
  Number of phase I metabolites detected, pHLS9 [25 μM]: 6 (Caspar et al., [2018b])
  Number of phase II metabolites detected, pHLS9 [25 μM]: 5 (Caspar et al., [2018b])
[3]; 3,4-DMA-NBOMe and metabolites, ref Caspar et al., 2018
  Detection in pHLS9 [25 µM]: +
monooxygenases
  Monooxygenases involved in metabolism: CYP3A4 was described to be involved in the N-dealkylation and CYP2C19 and CYP2D6 in the O-demethylation and hydroxylation
Zebrafish larvae [2]; 100 μM in medium
  Number of phase I metabolites detected, Zebrafish larvae: 9
  Number of phase II metabolites detected, Zebrafish larvae: 7
Zebrafish larvae [2]
  Absolute peak area, Zebrafish larvae [100 µM]: 6.22E+09
